Laboratory results published in US20100216751A1 (priority 2007, published 2010).

Test: Pharmacokinetic evaluation of liquid bevirimat dosage forms, oral gavage, male Cynomolgus monkeys
Conditions: male, cynomolgus monkey, in vivo, po; for AUC / Cmax / half-life / Tmax: 200 mg
Procedure: Six male Cynomolgus monkeys having an initial body weight of about 3.5 to about 4.5 kg are allowed 7 days to acclimate to their individual housing units. Monkeys are supplied with water and a commercial diet ad libitum prior to the study initiation. Food is withheld from the monkeys for a minimum of twelve hours before the study and during the study until four hours postdose when food is returned. Water is supplied ad libitum.
Test formulations are administered to the monkeys at time 0 on appropriate days. Test formulations will be dosed orally via oral gavage or intravenously.
Samples are drawn at the frequencies indicated below. Each blood sample (0.5 mL) is collected from the monkey's saphenous vein via a butterfly catheter and placed into a chilled polypropylene tube containing sodium heparin as the anticoagulant. Blood samples are centrifuged at a temperature of 4° C. at a speed of 3,000 rpm for 15 minutes. All samples are maintained chilled throughout processing. Plasma is collected after centrifugation, pipetted into a 2-mL polypropylene microtube, and frozen on dry-ice pending analytical evaluation.

[1] = 50 mg/monkey, Plasma Concentration, PG/glycerin/Vitamin ETPGS/Tween80/Plasdone C15 formulation, AVG
[2] = 50 mg/monkey, Plasma Concentration, PG/glycerin/Vitamin ETPGS/Tween80/Plasdone C15 formulation, individual monkey
[3] = 50 mg/monkey, Plasma Concentration, PG/glycerin/Vitamin ETPGS/ethanol formulation, AVG
[4] = 50 mg/monkey, Plasma Concentration, PG/glycerin/Vitamin ETPGS/ethanol formulation, individual monkey
[5] = 200 mg/monkey, Plasma Concentration, PG/glycerin/Vitamin ETPGS/ethanol formulation, AVG
[6] = 200 mg/monkey, Plasma Concentration, PG/glycerin/Vitamin ETPGS/ethanol formulation, individual monkey

C=C(C)[C@@H]1CC[C@]2(C(=O)O)CC[C@]3(C)[C@H](CC[C@@H]4[C@@]5(C)CC[C@H](OC(=O)CC(C)(C)C(=O)O)C(C)(C)[C@@H]5CC[C@]43C)[C@@H]12 [Bevirimat, 3-O-(3′,3′-dimethylsuccinyl)betulinic acid]
concentration at 1 h (50 mg/monkey, Plasma Concentration, PG/glycerin/Vitamin ETPGS/Tween80/Plasdone C15 formulation, 1.0 hr, AVG): 24800 ng/mL
concentration at 2 h [1]: 61600 ng/mL
concentration at 2 h [2]: 52700 ng/mL
concentration at 4 h [1]: 53600 ng/mL
concentration at 4 h [2]: 55100 ng/mL
concentration at 6 h [1]: 32300 ng/mL
concentration at 6 h [2]: 31500 ng/mL
concentration at 8 h (50 mg/monkey, Plasma Concentration, PG/glycerin/Vitamin ETPGS/Tween80/Plasdone C15 formulation, 8.0 hr, AVG): 21000 ng/mL
concentration at 8 h (50 mg/monkey, Plasma Concentration, PG/glycerin/Vitamin ETPGS/Tween80/Plasdone C15 formulation, 8.0 hr, individual monkey): 22300 ng/mL
concentration at 12 h (50 mg/monkey, Plasma Concentration, PG/glycerin/Vitamin ETPGS/Tween80/Plasdone C15 formulation, 12 hr, AVG): 8160 ng/mL
concentration at 12 h (50 mg/monkey, Plasma Concentration, PG/glycerin/Vitamin ETPGS/Tween80/Plasdone C15 formulation, 12 hr, individual monkey): 8580 ng/mL
concentration at 24 h (50 mg/monkey, Plasma Concentration, PG/glycerin/Vitamin ETPGS/Tween80/Plasdone C15 formulation, 24 hr, AVG): 1270 ng/mL
concentration at 24 h (50 mg/monkey, Plasma Concentration, PG/glycerin/Vitamin ETPGS/Tween80/Plasdone C15 formulation, 24 hr, individual monkey): 1320 ng/mL
concentration at 48 h (50 mg/monkey, Plasma Concentration, PG/glycerin/Vitamin ETPGS/Tween80/Plasdone C15 formulation, 48 hr, AVG): 336 ng/mL
concentration at 72 h (50 mg/monkey, Plasma Concentration, PG/glycerin/Vitamin ETPGS/Tween80/Plasdone C15 formulation, 72 hr, individual monkey): 112 ng/mL
concentration at 0.25 h (50 mg/monkey, Plasma Concentration, PG/glycerin/Vitamin ETPGS/ethanol formulation, 0.25 hr, individual monkey): 78.4 ng/mL
concentration at 0.5 h (50 mg/monkey, Plasma Concentration, PG/glycerin/Vitamin ETPGS/ethanol formulation, 0.50 hr, AVG): 246 ng/mL
concentration at 1 h (50 mg/monkey, Plasma Concentration, PG/glycerin/Vitamin ETPGS/ethanol formulation, 1.0 hr, AVG): 36900 ng/mL
concentration at 2 h [3]: 60100 ng/mL
concentration at 2 h [4]: 58900 ng/mL
concentration at 4 hr [3]: 42500 ng/mL
concentration at 4 h [4]: 34500 ng/mL
concentration at 6 hr [3]: 23000 ng/mL
concentration at 8 hr (50 mg/monkey, Plasma Concentration, PG/glycerin/Vitamin ETPGS/ethanol formulation, 8.0 hr, AVG): 14700 ng/mL
concentration at 12 hr (50 mg/monkey, Plasma Concentration, PG/glycerin/Vitamin ETPGS/ethanol formulation, 12 hr, AVG): 5310 ng/mL
concentration at 24 hr (50 mg/monkey, Plasma Concentration, PG/glycerin/Vitamin ETPGS/ethanol formulation, 24 hr, AVG): 1340 ng/mL
concentration at 48 hr (50 mg/monkey, Plasma Concentration, PG/glycerin/Vitamin ETPGS/ethanol formulation, 48 hr, AVG): 149 ng/mL
AUC (AUCall): 1300 µg·h/mL
AUC (AUCall, 200 mg/monkey, PG/glycerin/Vitamin ETPGS/ethanol formulation, individual monkey): 1200 µg·h/mL
Cmax (Cmax, 200 mg/monkey, PG/glycerin/Vitamin ETPGS/ethanol formulation, AVG): 217000 ng/mL
Cmax (Cmax, 200 mg/monkey, PG/glycerin/Vitamin ETPGS/ethanol formulation, individual monkey): 202000 ng/mL
AUC (pH 8): 1970 µg·h/mL
Cmax (pH 8): 225000 ng/mL
half-life (pH 8): 8.3 h
AUC (pH 8, AUCall): 1390 µg·h/mL
Tmax (pH 8, tmax): 2 h
half-life (t1/2, oral, 200 mg/monkey, PG/glycerin/Vitamin ETPGS/ethanol formulation, AVG): 10.8 h
half-life (t1/2, oral, 200 mg/monkey, PG/glycerin/Vitamin ETPGS/ethanol formulation, individual monkey): 11.4 h
Tmax (tmax): 2 h
concentration at 0.25 hr (200 mg/monkey, Plasma Concentration, PG/glycerin/Vitamin ETPGS/ethanol formulation, 0.25 hr, AVG): 565 ng/mL
concentration at 0.5 hr (200 mg/monkey, Plasma Concentration, PG/glycerin/Vitamin ETPGS/ethanol formulation, 0.50 hr, AVG): 6020 ng/mL
concentration at 1 hr (200 mg/monkey, Plasma Concentration, PG/glycerin/Vitamin ETPGS/ethanol formulation, 1.0 hr, AVG): 64800 ng/mL
concentration at 2 hr [5]: 217000 ng/mL
concentration at 2 hr [6]: 202000 ng/mL
concentration at 4 hr [5]: 152000 ng/mL
concentration at 4 hr [6]: 166000 ng/mL
concentration at 6 hr [5]: 77800 ng/mL
